This note sets out measurements from article PMC5218480 (PLoS ONE, 2017).

The subject of this test is MV-4-11 cells. The experiment in a line: Gene expression microarray analysis (Affymetrix PrimeView) and GSEA. The class given is cell-based, human. The arrangement: RFU PODN (11730768_x_at) / Fold change /veh PODN (11730768_x_at) / RFU LINC00158 (11744669_a_at) / Fold change /veh LINC00158 (11744669_a_at) / RFU DUSP10 (11751237_a_at) / Fold change /veh DUSP10 (11751237_a_at) / RFU ID3 (11757404_x_at) / Fold change /veh ID3 (11757404_x_at) / RFU PLEKHG5 (11737974_s_at) / Fold change /veh PLEKHG5 (11737974_s_at) / RFU LRRC4B (11730491_at) / Fold change /veh LRRC4B (11730491_at) / RFU GIMAP4 (11747438_a_at) / Fold change /veh GIMAP4 (11747438_a_at) / RFU KRT8 (11758183_x_at) / Fold change /veh KRT8 (11758183_x_at) / RFU CNN1 (11734310_a_at) / Fold change /veh CNN1 (11734310_a_at) / RFU VPS37D (11726825_at) / Fold change /veh VPS37D (11726825_at) / RFU C10orf10 (11716522_x_at) / Fold change /veh C10orf10 (11716522_x_at) / RFU KIR2DL2 /// KIR2DL4 /// KIR2DL5A /// KIR2DL5B /// KIR2DS1 /// KIR2DS2 /// KIR2DS3 /// KIR2DS4 /// KIR3DL3 /// KIR3DL3 /// KIR3DS1 (11738374_at) / Fold change /veh KIR2DL2 /// KIR2DL4 /// KIR2DL5A /// KIR2DL5B /// KIR2DS1 /// KIR2DS2 /// KIR2DS3 /// KIR2DS4 /// KIR3DL3 /// KIR3DL3 /// KIR3DS1 (11738374_at) / RFU C1QL1 (11718748_at) / Fold change /veh C1QL1 (11718748_at) / RFU TMPRSS4 (11747572_a_at) / Fold change /veh TMPRSS4 (11747572_a_at) / RFU HAMP (11756126_x_at) / Fold change /veh HAMP (11756126_x_at) / RFU RNFT2 (11725882_a_at) / Fold change /veh RNFT2 (11725882_a_at) / RFU NR4A2 (11747474_a_at) / Fold change /veh NR4A2 (11747474_a_at) / RFU ABCC12 (11746883_a_at) / Fold change /veh ABCC12 (11746883_a_at) / RFU TMEM136 (11760407_x_at) / Fold change /veh TMEM136 (11760407_x_at) / RFU CLDN22 /// WWC2 (11732394_at) / Fold change /veh CLDN22 /// WWC2 (11732394_at) / RFU HLA-DPB1 (11760878_x_at) / Fold change /veh HLA-DPB1 (11760878_x_at) / RFU SPINT1 (11716480_a_at) / Fold change /veh SPINT1 (11716480_a_at) / RFU GAP43 (11754022_s_at) / Fold change /veh GAP43 (11754022_s_at) / RFU A4GNT (11735810_at) / Fold change /veh A4GNT (11735810_at) / RFU PRB3 (11715151_x_at) / Fold change /veh PRB3 (11715151_x_at) / RFU TUBB4B (11761932_at) / Fold change /veh TUBB4B (11761932_at) / RFU CAPN14 (11732068_a_at) / Fold change /veh CAPN14 (11732068_a_at) / RFU TMCC2 (11721928_a_at) / Fold change /veh TMCC2 (11721928_a_at) / RFU IRGQ (11745062_a_at) / Fold change /veh IRGQ (11745062_a_at) / RFU FAM174B (11720279_a_at) / Fold change /veh FAM174B (11720279_a_at) / RFU TMPRSS4 (11748680_a_at) / Fold change /veh TMPRSS4 (11748680_a_at) / RFU FAM212B (11763350_a_at) / Fold change /veh FAM212B (11763350_a_at) / RFU PLEKHG5 (11743358_a_at) / Fold change /veh PLEKHG5 (11743358_a_at) / RFU ZSCAN30 (11745921_a_at) / Fold change /veh ZSCAN30 (11745921_a_at) / RFU CMKLR1 (11741424_a_at) / Fold change /veh CMKLR1 (11741424_a_at) / RFU LOC101060620 /// MAPK8IP1 (11723275_at) / Fold change /veh LOC101060620 /// MAPK8IP1 (11723275_at) / RFU SPTSSB (11747773_x_at) / Fold change /veh SPTSSB (11747773_x_at) / RFU PRSS12 (11739890_at) / Fold change /veh PRSS12 (11739890_at) / RFU BIN1 (11741810_x_at) / Fold change /veh BIN1 (11741810_x_at) / RFU WNT11 (11732464_a_at) / Fold change /veh WNT11 (11732464_a_at) / RFU C10orf10 (11716521_a_at) / Fold change /veh C10orf10 (11716521_a_at) / RFU C5orf56 (11738089_at) / Fold change /veh C5orf56 (11738089_at) / RFU CYB561 (11721691_x_at) / Fold change /veh CYB561 (11721691_x_at) / RFU ANKRD19P (11752326_a_at) / Fold change /veh ANKRD19P (11752326_a_at) / RFU OR2T12 /// OR2T33 /// OR2T8 (11738714_s_at) / Fold change /veh OR2T12 /// OR2T33 /// OR2T8 (11738714_s_at) / RFU VCAN (11748164_a_at) / Fold change /veh VCAN (11748164_a_at) / RFU JSRP1 (11732532_at) / Fold change /veh JSRP1 (11732532_at) / RFU KRTAP10-11 (11738290_x_at) / Fold change /veh KRTAP10-11 (11738290_x_at) / RFU MYO3A (11730013_a_at) / Fold change /veh MYO3A (11730013_a_at) / RFU EBF3 (11725865_a_at) / Fold change /veh EBF3 (11725865_a_at) / RFU CAMK2N1 (11719241_x_at) / Fold change /veh CAMK2N1 (11719241_x_at) / RFU C5orf56 (11738088_a_at) / Fold change /veh C5orf56 (11738088_a_at) / RFU OLFML3 (11715873_a_at) / Fold change /veh OLFML3 (11715873_a_at) / RFU LOC100653217 /// NTM (11731650_a_at) / Fold change /veh LOC100653217 /// NTM (11731650_a_at) / RFU MAPK11 (11762145_a_at) / Fold change /veh MAPK11 (11762145_a_at) / RFU FIZ1 (11724087_x_at) / Fold change /veh FIZ1 (11724087_x_at) / RFU OASL (11726364_x_at) / Fold change /veh OASL (11726364_x_at) / RFU SOX15 (11748057_x_at) / Fold change /veh SOX15 (11748057_x_at) / RFU CD79A (11719716_a_at) / Fold change /veh CD79A (11719716_a_at) / RFU HIST1H1D (11736915_at) / Fold change /veh HIST1H1D (11736915_at) / RFU CASKIN2 (11723855_a_at) / Fold change /veh CASKIN2 (11723855_a_at) / RFU LOC730098 (11760151_x_at) / Fold change /veh LOC730098 (11760151_x_at) / RFU OR4N2 (11742367_at) / Fold change /veh OR4N2 (11742367_at) / RFU PRRT2 (11749266_a_at) / Fold change /veh PRRT2 (11749266_a_at) / RFU SNX32 (11753110_a_at) / Fold change /veh SNX32 (11753110_a_at) / RFU CDHR5 (11726645_a_at) / Fold change /veh CDHR5 (11726645_a_at) / RFU RCAN1 (11760418_a_at) / Fold change /veh RCAN1 (11760418_a_at) / RFU FAM167A (11723789_a_at) / Fold change /veh FAM167A (11723789_a_at) / RFU FAM26E (11764081_at) / Fold change /veh FAM26E (11764081_at) / RFU ISYNA1 (11749810_s_at) / Fold change /veh ISYNA1 (11749810_s_at) / RFU ACY1 (11761880_at) / Fold change /veh ACY1 (11761880_at) / RFU 11764098_at / Fold change /veh 11764098_at / RFU SAMD14 (11745864_x_at) / Fold change /veh SAMD14 (11745864_x_at) / RFU NPB (11741838_a_at) / Fold change /veh NPB (11741838_a_at) / RFU TMPRSS6 (11731388_a_at) / Fold change /veh TMPRSS6 (11731388_a_at) / RFU KRTAP10-2 (11738614_at) / Fold change /veh KRTAP10-2 (11738614_at) / RFU ARHGAP8 /// PRR5-ARHGAP8 (11727945_x_at) / Fold change /veh ARHGAP8 /// PRR5-ARHGAP8 (11727945_x_at) / RFU KRTAP5-7 /// NADSYN1 (11734609_at) / Fold change /veh KRTAP5-7 /// NADSYN1 (11734609_at) / RFU RASL12 (11751679_a_at) / Fold change /veh RASL12 (11751679_a_at) / RFU CDKN2B (11736163_a_at) / Fold change /veh CDKN2B (11736163_a_at) / RFU PRF1 (11729649_at) / Fold change /veh PRF1 (11729649_at) / RFU, ZNF638 /// ZNF638-IT1 / Fold change vs veh, ZNF638 /// ZNF638-IT1 / RFU, PANK3 / Fold change vs veh, PANK3 / RFU, SH3YL1 / Fold change vs veh, SH3YL1 / RFU, ZEB2 / Fold change vs veh, ZEB2 / RFU, NRIP1 / Fold change vs veh, NRIP1 / RFU, PTTG1IP / Fold change vs veh, PTTG1IP / RFU, CAPN2 / Fold change vs veh, CAPN2 / RFU, MED14 / Fold change vs veh, MED14 / RFU, SNORA58 / Fold change vs veh, SNORA58 / RFU, C1orf63 / Fold change vs veh, C1orf63 / RFU, LRRFIP1 / Fold change vs veh, LRRFIP1 / RFU, NDUFAF7 / Fold change vs veh, NDUFAF7 / RFU, SLC12A2 / Fold change vs veh, SLC12A2 / RFU, IBTK / Fold change vs veh, IBTK / RFU, ESF1 / Fold change vs veh, ESF1 / Fold change vs veh, TMEM50B / RFU, TAOK1 / Fold change vs veh, TAOK1 / RFU, ACBD3 / Fold change vs veh, ACBD3 / RFU, TMA16 / Fold change vs veh, TMA16 / RFU, RWDD3 / Fold change vs veh, RWDD3 / RFU, BCAT1 / Fold change vs veh, BCAT1 / RFU, EDEM3 / Fold change vs veh, EDEM3 / RFU, TMEM33 / Fold change vs veh, TMEM33 / RFU, WDR75 / Fold change vs veh, WDR75 / RFU, AHCTF1 / Fold change vs veh, AHCTF1 / RFU, TFRC / Fold change vs veh, TFRC / RFU, ZDHHC17 / Fold change vs veh, ZDHHC17 / RFU, NOM1 / Fold change vs veh, NOM1 / RFU, ARL8B / Fold change vs veh, ARL8B / RFU, ZBTB11 / Fold change vs veh, ZBTB11 / RFU, TAMM41 / Fold change vs veh, TAMM41 / RFU, KIAA1704 /// LOC100996395 / Fold change vs veh, KIAA1704 /// LOC100996395 / RFU, ING1 / Fold change vs veh, ING1 / RFU, TRMT61B / Fold change vs veh, TRMT61B / RFU, FUBP3 / Fold change vs veh, FUBP3 / RFU, TP53 / Fold change vs veh, TP53 / RFU, TNKS2 / Fold change vs veh, TNKS2 / RFU, ZFP14 / Fold change vs veh, ZFP14 / RFU, ACTR2 / Fold change vs veh, ACTR2 / RFU, PPP3R1 / Fold change vs veh, PPP3R1 / RFU, PIK3R1 / Fold change vs veh, PIK3R1 / RFU, HNRNPA1 / Fold change vs veh, HNRNPA1 / RFU, RNF170 / Fold change vs veh, RNF170 / RFU, ZNF28 / Fold change vs veh, ZNF28 / RFU, RNGTT / Fold change vs veh, RNGTT / RFU, OGT / Fold change vs veh, OGT / RFU, BRD1 / Fold change vs veh, BRD1 / RFU, MARS / Fold change vs veh, MARS / RFU, ZNF655 / Fold change vs veh, ZNF655 / RFU, FAHD1 / Fold change vs veh, FAHD1 / RFU, BDP1 / Fold change vs veh, BDP1 / RFU, LRRCC1 / Fold change vs veh, LRRCC1 / RFU, ARID1A / Fold change vs veh, ARID1A / RFU, ZNF146 / Fold change vs veh, ZNF146 / RFU, ZNF330 / Fold change vs veh, ZNF330 / RFU, GPN3 / Fold change vs veh, GPN3 / RFU, C9orf123 / Fold change vs veh, C9orf123 / RFU, N4BP2L2 / Fold change vs veh, N4BP2L2 / RFU, ARFIP1 / Fold change vs veh, ARFIP1 / RFU, FAM179B / Fold change vs veh, FAM179B / RFU, BCL10 / Fold change vs veh, BCL10 / RFU, UHRF1BP1L / Fold change vs veh, UHRF1BP1L / RFU, BET1 / Fold change vs veh, BET1 / RFU, CNOT2 / Fold change vs veh, CNOT2 / RFU, ZNF268 / Fold change vs veh, ZNF268 / Fold change vs veh, ZNF507 / RFU, DGCR2 / Fold change vs veh, DGCR2 / RFU, WDSUB1 / Fold change vs veh, WDSUB1 / Fold change vs veh, HSP90B1 /// MIR3652 / RFU, ADSS / Fold change vs veh, ADSS / RFU, GK / Fold change vs veh, GK / RFU, ZNF148 / Fold change vs veh, ZNF148 / RFU, TAF9 / Fold change vs veh, TAF9 / RFU, SLC1A5 / Fold change vs veh, SLC1A5 / RFU, SLMO2 / Fold change vs veh, SLMO2 / RFU, ABCC4 / Fold change vs veh, ABCC4 / RFU, LOC101060439 /// RAP1B / Fold change vs veh, LOC101060439 /// RAP1B / RFU, RFX7 / Fold change vs veh, RFX7 / RFU, GTPBP10 / Fold change vs veh, GTPBP10 / RFU, CNEP1R1 / Fold change vs veh, CNEP1R1 / RFU, BIVM-ERCC5 /// ERCC5 / Fold change vs veh, BIVM-ERCC5 /// ERCC5 / RFU, ILF3 / Fold change vs veh, ILF3 / RFU 11762660_at / Fold change /veh 11762660_at / RFU VCAN (11757783_s_at) / Fold change /veh VCAN (11757783_s_at) / RFU DDX43 (11728927_at) / Fold change /veh DDX43 (11728927_at) / RFU KRT8 (11758188_x_at) / Fold change /veh KRT8 (11758188_x_at) / RFU NKD1 (11759106_at) / Fold change /veh NKD1 (11759106_at) / RFU SRD5A1 (11742802_a_at) / Fold change /veh SRD5A1 (11742802_a_at) / RFU TPSAB1 /// TPSB2 (11721975_s_at) / Fold change /veh TPSAB1 /// TPSB2 (11721975_s_at) / RFU GSTM3 (11746129_a_at) / Fold change /veh GSTM3 (11746129_a_at) / RFU IL23R (11737362_x_at) / Fold change /veh IL23R (11737362_x_at) / RFU TMEM51 (11727254_a_at) / Fold change /veh TMEM51 (11727254_a_at) / RFU PIWIL2 (11732686_x_at) / Fold change /veh PIWIL2 (11732686_x_at) / RFU ORM1 (11744905_x_at) / Fold change /veh ORM1 (11744905_x_at) / RFU CCDC152 (11743942_at) / Fold change /veh CCDC152 (11743942_at) / RFU ECM1 (11717891_a_at) / Fold change /veh ECM1 (11717891_a_at) / RFU IL23R (11748794_a_at) / Fold change /veh IL23R (11748794_a_at) / RFU TNFAIP8L3 (11732012_x_at) / Fold change /veh TNFAIP8L3 (11732012_x_at) / RFU MBOAT4 (11741988_at) / Fold change /veh MBOAT4 (11741988_at) / RFU 11764193_at / Fold change /veh 11764193_at / RFU TMEM53 (11763286_at) / Fold change /veh TMEM53 (11763286_at) / RFU MAGEB2 (11727129_at) / Fold change /veh MAGEB2 (11727129_at) / RFU TMEM200A (11744735_a_at) / Fold change /veh TMEM200A (11744735_a_at) / RFU CCDC152 (11751479_a_at) / Fold change /veh CCDC152 (11751479_a_at) / RFU FAM211A (11726209_a_at) / Fold change /veh FAM211A (11726209_a_at) / RFU RGS16 (11746705_a_at) / Fold change /veh RGS16 (11746705_a_at) / RFU VCAN (11755009_s_at) / Fold change /veh VCAN (11755009_s_at) / RFU RHOB (11743442_s_at) / Fold change /veh RHOB (11743442_s_at) / RFU RGS16 (11720943_a_at) / Fold change /veh RGS16 (11720943_a_at) / RFU RGS16 (11720944_at) / Fold change /veh RGS16 (11720944_at) / RFU, VPS4B / Fold change vs veh, VPS4B / RFU, CREB1 / Fold change vs veh, CREB1 / RFU, DNAJC13 / Fold change vs veh, DNAJC13 / RFU, GNAQ / Fold change vs veh, GNAQ / RFU, CDK5R1 / Fold change vs veh, CDK5R1 / RFU, ZRANB3 / Fold change vs veh, ZRANB3 / RFU, CUL4A / Fold change vs veh, CUL4A / RFU, CCNY / Fold change vs veh, CCNY / RFU, UFL1 / Fold change vs veh, UFL1 / RFU, COG3 / Fold change vs veh, COG3 / RFU, DIAPH2 / Fold change vs veh, DIAPH2 / RFU, SKA2 / Fold change vs veh, SKA2 / RFU, AFF3 / Fold change vs veh, AFF3 / RFU, LMF1 / Fold change vs veh, LMF1 / RFU, IPO11 / Fold change vs veh, IPO11 / RFU, DFFB / Fold change vs veh, DFFB / RFU, FOXP1 / Fold change vs veh, FOXP1 / RFU, CARD8 / Fold change vs veh, CARD8 / RFU, STRN3 / Fold change vs veh, STRN3 / RFU, ADK / Fold change vs veh, ADK / RFU, RASSF2 / Fold change vs veh, RASSF2 / RFU, WIPF1 / Fold change vs veh, WIPF1 / RFU, LARP1B / Fold change vs veh, LARP1B / RFU, RASA1 / Fold change vs veh, RASA1 / RFU, RB1 / Fold change vs veh, RB1 / RFU, PPFIA1 / Fold change vs veh, PPFIA1 / RFU, MAT2A / Fold change vs veh, MAT2A / RFU, CCT5 / Fold change vs veh, CCT5 / RFU, WDR92 / Fold change vs veh, WDR92 / RFU, CUX1 / Fold change vs veh, CUX1 / RFU, TTC7A / Fold change vs veh, TTC7A / RFU, TMEM135 / Fold change vs veh, TMEM135 / RFU, DEPTOR / Fold change vs veh, DEPTOR / RFU, CPM / Fold change vs veh, CPM / RFU, DNAJB6 / Fold change vs veh, DNAJB6 / RFU, CACNA2D3 / Fold change vs veh, CACNA2D3 / RFU, DTX4 / Fold change vs veh, DTX4 / RFU, TFCP2 / Fold change vs veh, TFCP2 / RFU, GMCL1 /// GMCL1P1 / Fold change vs veh, GMCL1 /// GMCL1P1 / RFU, AEBP2 / Fold change vs veh, AEBP2 / RFU, SNHG1 /// SNORD22 /// SNORD25 /// SNORD26 /// SNORD27 /// SNORD28 /// SNORD29 /// SNORD31 / Fold change vs veh, SNHG1 /// SNORD22 /// SNORD25 /// SNORD26 /// SNORD27 /// SNORD28 /// SNORD29 /// SNORD31 / Fold change (Aza/veh), C12orf56 (ProbeSet 11735607_a_at) / Fold change (ACY-1035/veh), C12orf56 (ProbeSet 11735607_a_at) / Fold change (Aza/veh), FGFR1OP (ProbeSet 11751329_s_at) / Fold change (ACY-1035/veh), FGFR1OP (ProbeSet 11751329_s_at) / Fold change (Aza/veh), VPS36 (ProbeSet 11739960_a_at) / Fold change (ACY-1035/veh), VPS36 (ProbeSet 11739960_a_at) / RFU SYPL1 (11715823_x_at) / Fold change /veh SYPL1 (11715823_x_at) / RFU IGFBP7 (11715501_s_at) / Fold change /veh IGFBP7 (11715501_s_at) / RFU REEP3 (11722064_at) / Fold change /veh REEP3 (11722064_at) / RFU IGLL1 (11728026_x_at) / Fold change /veh IGLL1 (11728026_x_at): dose or concentration left out as unconfirmed. The conditions noted are these: ProbeSet 11716865_a_at; LIST B.

As to `Nc1ccc(-c2cccs2)cc1NC(=O)c1ccc2c(c1)cc(C1CC1)n2CCN1CCOCC1` [ACY-1035], the “RFU, SLC1A5” value is listed as 252.35 RFU.
